Test results as given in patent US20140120232A1, “ACID TASTE/ACID SMELL-REDUCING AGENT” (T. HASEGAWA CO., LTD., priority 2011, published 2014).

Assay: Sensory evaluation of dressing containing the agent
Conditions: ten panels
Method: Sensory evaluation of each drink was carried out by ten panels. […] The piercing aroma characteristic to aldehydes is a characteristic aroma common to every aldehyde and refers to an irritant off-smell giving an image of deteriorated oils and fats, soap, metals, Houttuynia cordata, etc. The judgment of smell was performed by comparing the effects at different concentrations of the acid taste and/or acid smell-reducing agent, and a concentration giving the highest acid taste/acid smell quality was selected.
A separation-type dressing base material (100 g) was prepared by mixing 20 g of edible vinegar, 35 g of vegetable oils and fats, and 45 g of an aqueous solution containing spices and extracts with stirring. To the resulting mixture was added (Z,Z)-4,7-tridecadienal as the acid taste and/or acid smell-reducing agent of the present invention in concentrations shown in the following Table 10 to give dressings containing the agent, followed by sensory evaluation as in Example 1.

## CCCCC/C=C\C/C=C\CCC=O [(Z,Z)-4,7-tridecadienal]
0.005 ppt
  A: number of panels, acid taste/acid smell extreme and cause irritation: 10
  B: number of panels, acid taste/acid smell slightly strong and slightly cause irritation: 0
  C: number of panels, acid taste/acid smell slightly unpleasant: 0
  Flavor judgment: number of panels who judged acid taste/acid smell quality the highest: 0
  N: number of panels, irritation of acid reduced to give a mild acid taste: 0
  X: number of panels, acid taste reduced but piercing odor characteristic to aldehydes unpleasant: 0
0.02 ppt
  A: number of panels, acid taste/acid smell extreme and cause irritation: 9
  B: number of panels, acid taste/acid smell slightly strong and slightly cause irritation: 1
  C: number of panels, acid taste/acid smell slightly unpleasant: 0
  Flavor judgment: number of panels who judged acid taste/acid smell quality the highest: 0
  N: number of panels, irritation of acid reduced to give a mild acid taste: 0
  X: number of panels, acid taste reduced but piercing odor characteristic to aldehydes unpleasant: 0
0.1 ppt
  A: number of panels, acid taste/acid smell extreme and cause irritation: 6
  B: number of panels, acid taste/acid smell slightly strong and slightly cause irritation: 4
  C: number of panels, acid taste/acid smell slightly unpleasant: 0
  Flavor judgment: number of panels who judged acid taste/acid smell quality the highest: 0
  N: number of panels, irritation of acid reduced to give a mild acid taste: 0
  X: number of panels, acid taste reduced but piercing odor characteristic to aldehydes unpleasant: 0
0.2 ppt
  A: number of panels, acid taste/acid smell extreme and cause irritation: 4
  B: number of panels, acid taste/acid smell slightly strong and slightly cause irritation: 4
  C: number of panels, acid taste/acid smell slightly unpleasant: 2
  Flavor judgment: number of panels who judged acid taste/acid smell quality the highest: 0
  N: number of panels, irritation of acid reduced to give a mild acid taste: 0
  X: number of panels, acid taste reduced but piercing odor characteristic to aldehydes unpleasant: 0
0.5 ppt
  A: number of panels, acid taste/acid smell extreme and cause irritation: 1
  B: number of panels, acid taste/acid smell slightly strong and slightly cause irritation: 2
  C: number of panels, acid taste/acid smell slightly unpleasant: 2
  Flavor judgment: number of panels who judged acid taste/acid smell quality the highest: 1
  N: number of panels, irritation of acid reduced to give a mild acid taste: 5
  X: number of panels, acid taste reduced but piercing odor characteristic to aldehydes unpleasant: 0
1 ppb
  A: number of panels, acid taste/acid smell extreme and cause irritation: 0
  B: number of panels, acid taste/acid smell slightly strong and slightly cause irritation: 0
  C: number of panels, acid taste/acid smell slightly unpleasant: 3
  Flavor judgment: number of panels who judged acid taste/acid smell quality the highest: 0
  N: number of panels, irritation of acid reduced to give a mild acid taste: 3
  X: number of panels, acid taste reduced but piercing odor characteristic to aldehydes unpleasant: 4
1 ppt
  A: number of panels, acid taste/acid smell extreme and cause irritation: 0
  B: number of panels, acid taste/acid smell slightly strong and slightly cause irritation: 1
  C: number of panels, acid taste/acid smell slightly unpleasant: 3
  Flavor judgment: number of panels who judged acid taste/acid smell quality the highest: 1
  N: number of panels, irritation of acid reduced to give a mild acid taste: 6
  X: number of panels, acid taste reduced but piercing odor characteristic to aldehydes unpleasant: 0
5 ppt
  A: number of panels, acid taste/acid smell extreme and cause irritation: 0
  B: number of panels, acid taste/acid smell slightly strong and slightly cause irritation: 0
  C: number of panels, acid taste/acid smell slightly unpleasant: 3
  Flavor judgment: number of panels who judged acid taste/acid smell quality the highest: 4
  N: number of panels, irritation of acid reduced to give a mild acid taste: 7
  X: number of panels, acid taste reduced but piercing odor characteristic to aldehydes unpleasant: 0
10 ppb
  A: number of panels, acid taste/acid smell extreme and cause irritation: 0
  B: number of panels, acid taste/acid smell slightly strong and slightly cause irritation: 0
  C: number of panels, acid taste/acid smell slightly unpleasant: 1
  Flavor judgment: number of panels who judged acid taste/acid smell quality the highest: 0
  N: number of panels, irritation of acid reduced to give a mild acid taste: 2
  X: number of panels, acid taste reduced but piercing odor characteristic to aldehydes unpleasant: 7
20 ppt
  A: number of panels, acid taste/acid smell extreme and cause irritation: 0
  B: number of panels, acid taste/acid smell slightly strong and slightly cause irritation: 0
  C: number of panels, acid taste/acid smell slightly unpleasant: 3
  Flavor judgment: number of panels who judged acid taste/acid smell quality the highest: 4
  N: number of panels, irritation of acid reduced to give a mild acid taste: 7
  X: number of panels, acid taste reduced but piercing odor characteristic to aldehydes unpleasant: 0
50 ppb
  A: number of panels, acid taste/acid smell extreme and cause irritation: 0
  B: number of panels, acid taste/acid smell slightly strong and slightly cause irritation: 0
  C: number of panels, acid taste/acid smell slightly unpleasant: 0
  Flavor judgment: number of panels who judged acid taste/acid smell quality the highest: 0
  N: number of panels, irritation of acid reduced to give a mild acid taste: 2
  X: number of panels, acid taste reduced but piercing odor characteristic to aldehydes unpleasant: 8
100 ppt
  A: number of panels, acid taste/acid smell extreme and cause irritation: 0
  B: number of panels, acid taste/acid smell slightly strong and slightly cause irritation: 1
  C: number of panels, acid taste/acid smell slightly unpleasant: 3
  Flavor judgment: number of panels who judged acid taste/acid smell quality the highest: 0
  N: number of panels, irritation of acid reduced to give a mild acid taste: 4
  X: number of panels, acid taste reduced but piercing odor characteristic to aldehydes unpleasant: 2
500 ppt
  A: number of panels, acid taste/acid smell extreme and cause irritation: 0
  B: number of panels, acid taste/acid smell slightly strong and slightly cause irritation: 0
  C: number of panels, acid taste/acid smell slightly unpleasant: 4
  Flavor judgment: number of panels who judged acid taste/acid smell quality the highest: 0
  N: number of panels, irritation of acid reduced to give a mild acid taste: 4
  X: number of panels, acid taste reduced but piercing odor characteristic to aldehydes unpleasant: 2
